From ChEMBL document CHEMBL1129076 (J Med Chem, 1996) come the findings set out here.

The target of assay [1] is T1, Vanilloid receptor (Rattus norvegicus, UniProt Q9ERZ8+Q9WUD2+O35433). In words: Calcium +2 uptake into Dorsal Root Ganglion(DRG) neurons. It counts as functional, tissue-based.
Assay [2] concerns the target T1, Vanilloid receptor. In words: Ability to stimulate uptake of Calcium into Dorsal Root Ganglion(DRG) neurons. It counts as functional, tissue-based.
Assay [3] has as its target Transient receptor potential cation channel subfamily V member 1 (Rattus norvegicus) (UniProt O35433). The assay can be described thus: Relative potency(RTX) against Dorsal Root Ganglion (DRG) membranes using RTX binding assay. The assay is classed as functional, tissue-based.
For assay [4], the target named is Transient receptor potential cation channel subfamily V member 1 (Rattus norvegicus, UniProt O35433). In words: Binding affinity against Vanilloid receptor in dorsal Root Ganglion (DRG) membranes using [3H]RTX binding assay. It counts as tissue-based.
Assay [5] concerns the target Transient receptor potential cation channel subfamily V member 1 (Rattus norvegicus) (UniProt O35433). The assay can be described thus: Binding affinity against Vanilloid receptor in dorsal root ganglion (DRG) membranes relative to resinferatoxin (RTX); not tested. The assay is classed as tissue-based.
Assay [6] has the same target. In words: Relative potency against RTX binding to Dorsal Root Ganglion (DRG) membranes. The assay is classed as functional, tissue-based.

Chain of Transient receptor potential cation channel subfamily V member 1 (Rattus norvegicus) (O35433 whole entry): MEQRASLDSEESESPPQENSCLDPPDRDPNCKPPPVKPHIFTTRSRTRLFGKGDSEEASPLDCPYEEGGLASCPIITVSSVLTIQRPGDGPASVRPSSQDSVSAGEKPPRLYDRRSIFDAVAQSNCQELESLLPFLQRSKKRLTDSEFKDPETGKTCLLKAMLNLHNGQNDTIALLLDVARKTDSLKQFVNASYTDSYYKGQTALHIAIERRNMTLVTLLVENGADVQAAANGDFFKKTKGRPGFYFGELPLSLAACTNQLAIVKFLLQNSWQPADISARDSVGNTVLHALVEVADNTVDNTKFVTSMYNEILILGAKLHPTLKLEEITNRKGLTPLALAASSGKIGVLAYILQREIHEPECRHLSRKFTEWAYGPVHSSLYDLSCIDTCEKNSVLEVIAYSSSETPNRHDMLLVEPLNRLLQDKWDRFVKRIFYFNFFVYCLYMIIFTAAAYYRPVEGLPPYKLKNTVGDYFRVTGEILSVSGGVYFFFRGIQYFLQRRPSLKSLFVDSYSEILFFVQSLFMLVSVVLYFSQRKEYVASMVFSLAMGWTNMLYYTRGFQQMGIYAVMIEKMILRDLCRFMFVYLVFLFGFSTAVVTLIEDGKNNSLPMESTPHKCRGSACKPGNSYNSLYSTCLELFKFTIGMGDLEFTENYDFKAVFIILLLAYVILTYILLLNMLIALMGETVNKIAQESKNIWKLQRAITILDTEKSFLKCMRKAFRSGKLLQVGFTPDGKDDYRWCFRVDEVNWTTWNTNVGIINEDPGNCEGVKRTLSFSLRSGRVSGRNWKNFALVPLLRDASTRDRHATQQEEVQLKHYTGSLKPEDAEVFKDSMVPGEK
Chain of Transient receptor potential cation channel subfamily V member 1 (O35433 whole entry): as above

As for `C=C(C)[C@@]12C[C@@H](C)C34OC(Cc5ccccc5)(OC1[C@@H]3C=C(COC(C)=O)C[C@]1(O)C(=O)C(C)=C[C@@H]41)O2` (stereo partly drawn), the EC50 on Vanilloid receptor [1] is > 2000 nM.
On to `C=C(C)[C@@]12C[C@@H](C)C34OC(Cc5ccccc5)(OC1[C@@H]3C=C(COC(=O)Cc1cccc(OC)c1)C[C@]1(O)C(=O)C(C)=C[C@@H]41)O2` (stereo partly drawn), for which, on Vanilloid receptor [1], the 50% effective concentration (EC50) worked out at 7.89 nM.
Same read-out and setting: in the case of `CCCCCCCCC(=O)NCc1ccc(OCCN)c(OC)c1` it was 410 nM.
Same read-out and setting: in the case of `CCCCCCCCC(=O)NCc1cccc(OC)c1` it was > 100000 nM; in that of `CCCCCCCCC(=O)NCc1ccc(OC)c(OC)c1`, > 6410 nM.
`C=C(C)[C@@]12C[C@@H](C)C34OC(Cc5ccccc5)(OC1[C@@H]3C=C(CNC(=O)Cc1ccc(O)c(OC)c1)C[C@]1(O)C(=O)C(C)=C[C@@H]41)O2` (stereo partly drawn): the EC50 at Vanilloid receptor [2] was 122 nM. For the same compound, in assay [3], the Relative Potency came out at 0.013. Moreover, affinity in assay [4] was put at a Ki of 10.6 nM. For the same compound, the Relative affinity in assay [5] was 0.011.
Turning to `COc1cc(CC(=O)OC/C=C/[C@H]2[C@H]3OC4(Cc5ccccc5)O[C@H]3CC[C@H]2O4)ccc1O`, the EC50 on Vanilloid receptor [1] worked out at 9150 nM.
Turning to `C=C(C)[C@@]12C[C@@H](C)C34OC(C)(OC1[C@@H]3C=C(COC(=O)Cc1ccc(O)c(OC)c1)C[C@]1(O)C(=O)C(C)=C[C@@H]41)O2` (stereo partly drawn), at Vanilloid receptor [2], the EC50 amounted to 13.2 nM. The compound further displayed a Relative Potency in assay [3] of 0.122. Moreover, the Ki in assay [4] stood at 3.2 nM. For the same compound, in assay [5], the Relative affinity was 0.038.
For `COc1cc(CC(=O)OCC2=C[C@H]3[C@@H]4C(C)(C)[C@]4(OC(C)=O)C(OC(C)=O)[C@@H](C)C3(O)[C@@H]3C=C(C)C(=O)[C@@]3(OC)C2)ccc1O` (stereo partly drawn), the EC50 on Vanilloid receptor [1] turned out to be 8510 nM.
Same read-out and setting: in the case of `C=C(C)[C@@]12C[C@@H](C)C34OC(Cc5ccccc5)(OC1[C@@H]3C=C(COC(=O)Cc1ccc(OC)c(N=[N+]=[N-])c1)C[C@]1(O)C(=O)C(C)=C[C@@H]41)O2` (stereo partly drawn) it was 10.64 nM.
As for `C=C(C)[C@@]12C[C@@H](C)C34OC(c5ccccc5)(OC1[C@@H]3C=C(COC(=O)Cc1ccc(O)c(OC)c1)C[C@]1(O)C(=O)C(C)=C[C@@H]41)O2` (stereo partly drawn), the EC50 at Vanilloid receptor [2] is recorded as 7.6 nM. This compound yielded a Relative Potency in assay [3] of 0.21. This compound displayed a Ki in assay [4] of 0.17 nM. Moreover, in assay [5], the Relative affinity was 0.706.
Taken in the same sequence, the figures for `C=C(C)C12C[C@@H](C)C34OC(Cc5ccccc5)(OC1[C@@H]3C=C(COC(=O)Cc1ccc(OCCN)c(OC)c1)C[C@]1(O)C(=O)C(C)=CC41)O2` (single isomer, unassigned) were 13.04 nM, 0.123, 4.3 nM and 0.028.
Consider `C=C(C)C12C[C@@H](C)C34OC(Cc5ccccc5)(OC1[C@@H]3C=C(COC(=O)Cc1ccccc1)C[C@]1(O)C(=O)C(C)=CC41)O2` (single isomer, unassigned), for which, in assay [6], the Relative Potency was found to be 0.157. Further, the EC50 on Vanilloid receptor [1] and at Vanilloid receptor [2] was 10.22 nM throughout. This compound also showed an inhibition constant Ki in assay [4] of 8.3 nM. The Relative affinity in assay [5] worked out at 0.015.
On to `C=C(C)C12C[C@@H](C)C34OC(Cc5ccccc5)(OC1[C@@H]3C=C(COC(=O)Cc1ccc(OC)c(OC)c1)C[C@]1(O)C(=O)C(C)=CC41)O2` (single isomer, unassigned), for which the EC50 at Vanilloid receptor [2] was 14.89 nM. The compound further gave a Relative Potency in assay [3] of 0.107. For the same compound, the Ki in assay [4] was found to be 1 nM. Further, the Relative affinity in assay [5] was determined as 0.12.
For `C=C(C)C12C[C@@H](C)C34OC(Cc5ccccc5)(OC1[C@@H]3C=C(COC(=O)Cc1ccc(O)c(OC)c1)C[C@]1(OC)C(=O)C(C)=C[C@@H]41)O2` (single isomer, unassigned), the EC50 at Vanilloid receptor [1] is 5.3 nM.
Turning to `C=C(C)C12C[C@@H](C)C34OC(Cc5ccccc5)(OC1[C@@H]3C=C(CO)C[C@]1(O)C(=O)C(C)=CC41)O2` (single isomer, unassigned), the EC50 at Vanilloid receptor [2] is given as > 20000 nM. In addition, in assay [3], the Relative Potency is < 8e-05. Moreover, the Ki in assay [4] was > 10000 nM. The Relative affinity in assay [5] is < 1e-05.
In the case of `CCCCCCCCC(=O)NCc1ccc(O)c(OC)c1` [NONIVAMIDE], the EC50 at Vanilloid receptor [1] is listed as > 550 nM.
For the compound `C=C(C)[C@]12C[C@@H](C)[C@@]34O[C@](Cc5ccccc5)(O[C@@H]1[C@@H]3C=C(COC(=O)Cc1ccc(O)c(OC)c1)C[C@]1(O)C(=O)C(C)=C[C@@H]41)O2` [RESINIFERATOXIN], the 50% effective concentration (EC50) on Vanilloid receptor [2] was found to be 1.6 nM. The compound also yielded a Relative Potency in assay [3] of 1. The compound further came in with a Ki in assay [4] of 0.12 nM. In assay [5], this compound registered a Relative affinity of 1.

For orientation: EC50 means the concentration giving half of the maximal effect. What is called Ki is the dissociation constant of the complex between target and ligand, obtained from inhibition or displacement. Low readings indicate a stronger hold on the target, high ones a looser hold on the target.
